Literature values as cited in patent publication US20250041228A1, “ORAL FORMULATION OF A PYRIDINONE DERIVATE AND USE THEREOF IN PROPHYLAXIS AND/OR TREATMENT OF INTESTINAL FIBROSIS” (Dr. Falk Pharma GmbH, priority 2021, published 2025).

Molecular target: T1, transglutaminase 2 (Homo sapiens, UniProt P21980)
T1 sequence (P21980 1-687): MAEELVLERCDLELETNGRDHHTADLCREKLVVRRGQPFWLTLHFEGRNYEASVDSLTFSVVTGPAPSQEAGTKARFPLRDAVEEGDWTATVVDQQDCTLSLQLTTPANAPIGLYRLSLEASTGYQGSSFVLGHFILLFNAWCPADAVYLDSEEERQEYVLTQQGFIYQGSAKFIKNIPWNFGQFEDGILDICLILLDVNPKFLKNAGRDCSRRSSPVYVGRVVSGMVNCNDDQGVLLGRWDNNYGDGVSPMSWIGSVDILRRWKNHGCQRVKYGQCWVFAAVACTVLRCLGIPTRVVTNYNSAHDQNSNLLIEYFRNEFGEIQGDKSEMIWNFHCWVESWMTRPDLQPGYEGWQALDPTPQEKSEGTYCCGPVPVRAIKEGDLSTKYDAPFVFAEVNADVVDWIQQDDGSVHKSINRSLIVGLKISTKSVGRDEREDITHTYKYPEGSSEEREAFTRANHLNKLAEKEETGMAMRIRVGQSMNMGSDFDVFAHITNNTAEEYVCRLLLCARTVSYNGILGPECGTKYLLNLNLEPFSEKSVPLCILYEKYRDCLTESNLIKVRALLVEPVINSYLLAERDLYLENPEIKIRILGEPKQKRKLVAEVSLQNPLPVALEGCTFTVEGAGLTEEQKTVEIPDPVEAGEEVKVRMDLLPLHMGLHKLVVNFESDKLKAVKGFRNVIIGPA
Conditions: background statement, no data

inhibitor against transglutaminase 2: effective inhibitor
SMILES: CCC(CC)CNC(=O)Cn1cccc(NC(=O)[C@H](CC/C=C/C(=O)OC)NC(=O)c2cncn2C)c1=O [Compound 1, (S,E)-methyl-7-(1-(2-(2-ethylbutylamino)-2-oxoethyl)-2-oxo-1,2-dihydro-pyridin-3-ylamino)-6-(1-methyl-1H-imidazole-5-carboxamido)-7-oxohept-2-enoate]
